{
  "source": "paper PMC6009892",
  "about": "“A novel series of pyrazole-platinum(II) complexes as potential anti-cancer agents that induce cell cycle arrest and apoptosis in breast cancer cells” (Journal of Enzyme Inhibition and Medicinal Chemistry, 2018)",
  "format_in_all_cases": "cell-based, human",
  "key": {"[1]": {"tested_on": "MDA-MB-231 breast cancer cells", "assay": "DNA fragmentation TUNEL assay, MDA-MB-231", "details": "MDA-MB-231, 20 μM, 24 h", "protocol": "(§1) DNA fragmentation associated with apoptosis was examined by the terminal deoxynucleotidyltransferase (TdT)- mediated dUTP nick end labeling (TUNEL) method using a commercial assay kit (APO-Direct Kit; BD Pharmingen, San Diego, CA). After treatment, the cells were fixed with 1% paraformaldehyde in PBS (4°C, 30 min), washed in PBS, and permeabilised with ice-cold 70% ethanol. The APO-Direct Kit TUNEL assay was performed as described by the manufacturer. Briefly, the fixed cells were washed twice using the kit wash buffer, and after centrifugation the supernatant was discarded. The DNA labeling solution (containing TdT enzyme and FITC-dUTP) was added to the cell pellet, and the re-suspended mixture was incubated for 1 h at 37°C with occasional shaking. At the end of incubation time, rinse buffer was added, and after centrifugation the supernatant was discarded. We repeated the cell rinsing with rinse buffer, and then suspended the cell pellet in PI/RNase staining buffer. Cells were incubated at room temperature for 30 min and immediately analysed in a BD FACSCanto II flow cytometer. In total, 10,000 events were collected per test sample. The results were analysed with FACSDiva software (both from BD Biosciences Systems, San Jose, CA). The percentage of cells with distinctive apoptotic DNA strand breaks and distinguished by green fluorescent emission was calculated."}, "[2]": {"tested_on": "caspase-8 in MCF-7 breast cancer cells", "assay": "FLICA caspase-8 activity, flow cytometry, MCF-7", "details": "MCF-7, 20 μM, 24 h", "protocol": "(§2) Caspase-8 activity was measured using the FLICA Caspase 8 Assay Kit (ImmunoChemistry Technologies, Bloomington, MN, USA), according to the manufacturer’s instructions. Briefly, cultured MCF-7 and MDA-MB-231 breast cancer cells (1 × 10^6) were washed with cold PBS twice and re-suspended in buffer. We added 5 µl of diluted FLICA reagent and 2 µl of Hoechst 33342 to 93 µl of cell suspension and mixed by pipetting. The cells were incubated for 60 min at 37°C. After incubation, the cells were washed twice in 400 µl of apoptosis wash buffer and centrifuged at 300 × g. After the last wash, we re-suspended the cells in 100 µl of apoptosis wash buffer supplemented with 10 µg/ml PI. Analysis was performed using the BD FACSCanto II flow cytometer, and the results were analysed with FACSDiva software (both from BD Biosciences Systems, San Jose, CA)."}, "[3]": {"tested_on": "caspase-9 in MDA-MB-231 breast cancer cells", "assay": "FLICA caspase-9 activity, flow cytometry, MDA-MB-231", "details": "MDA-MB-231, 20 μM, 24 h", "protocol": "as §2, with “Caspase-9” for “Caspase-8”, “9” for “8”, “re-suspended” for “re-suspended the”"}, "[4]": {"tested_on": "MDA-MB-231 breast cancer cells", "assay": "MTT cell viability assay, MDA-MB-231", "details": "5-50 μM, read-out: IC50 (cell viability, MTT)", "protocol": "(§3) MCF-7, MDA-MB-231 (both human breast cancer cell lines), and fibroblast cells were obtained from American Type Culture Collection (ATCC, Manassas, VA, USA). DMEM and FBS used in a cell culture were from Gibco (USA). Glutamine, penicillin, and streptomycin were obtained from Quality Biologicals Inc. (USA). DMEM media was blended with 50 units/ml of penicillin, 50 μg/ml of streptomycin, 10% of FBS. All cell lines were cultured in 5% CO2 and fully humidified at 37 °C. Cells were cultured in Costar flasks and sub-confluent cells were detached with 0.05% trypsin and 0.02% ethylenediaminetetraacetic acid in calcium-free phosphate-buffered saline (PBS), counted in hemocytometers, and plated at 5 × 10^5 cells/well of six-well plates (Thermo Scientific, New York, NY, USA) in 2 ml of growth medium (DMEM without phenol red with 10% CPSR1). Cells reached about 80% of confluency at day 2, and in most cases such cells were used for the assays.\n(§4) The viability of cultured cells was decided through assaying the reduction of MTT to formazan. In brief, MCF-7, MDA-MB-231, and fibroblast cells line were seeded at an initial density of 1 × 10^5 cells per well. Then, the cells were incubated at 37 °C for 24 h. Subsequently, cultured cells were treated with a medium containing concentrations (5, 10, 20, 30, 40, and 50 μM) of PtPz1–PtPz6 for 24 h and 48 h. After the incubation period, MTT was added into all wells in the final concentration of 0.5 mg/ml. After that, the cells were incubated at 37 °C for 4 h. Then, by removing the medium, 200 μl of DMSO was added to all wells. As a result, insoluble formazan was dissolved in DMSO (0.5%). At 570 nm (630 nm as a reference), the absorbance was measured in an Evolution 201 reader (Thermo Scientific, Waltham, MA)."}, "[5]": {"tested_on": "caspase-9 in MCF-7 breast cancer cells", "assay": "FLICA caspase-9 activity, flow cytometry, MCF-7", "details": "MCF-7, 20 μM, 24 h", "protocol": "as §2, with “Caspase-9” for “Caspase-8”, “9” for “8”, “re-suspended” for “re-suspended the”"}, "fibroblast cells": {"tested_on": "fibroblast cells", "assay": "MTT cell viability assay, fibroblasts", "details": "5-50 μM, read-out: IC50 (cell viability, MTT)", "protocol": "as §3, §4"}, "[6]": {"tested_on": "MCF-7 breast cancer cells", "assay": "MTT cell viability assay, MCF-7", "details": "5-50 μM, read-out: IC50 (cell viability, MTT)", "protocol": "as §3, §4"}, "[7]": {"tested_on": "MCF-7 breast cancer cells", "assay": "DNA fragmentation TUNEL assay, MCF-7", "details": "MCF-7, 20 μM, 24 h; control 4.0%", "protocol": "as §1"}, "[8]": {"tested_on": "caspase-3 in MDA-MB-231 breast cancer cells", "assay": "FLICA caspase-3 activity, flow cytometry, MDA-MB-231", "details": "MDA-MB-231, 20 μM, 24 h", "protocol": "as §2, with “Caspase-3” for “Caspase-8”, “3” for “8”, “cultured” for “cultured MCF-7 and”"}, "[9]": {"tested_on": "caspase-8 in MDA-MB-231 breast cancer cells", "assay": "FLICA caspase-8 activity, flow cytometry, MDA-MB-231", "details": "MDA-MB-231, 20 μM, 24 h", "protocol": "as §2"}},
  "note": "Where two headings read alike, the source gives them in different places.",
  "data": [
    {"substance": "[Pt2(pyrazole)4(berenil)2]·4HCl·2H2O [PtPz4]", "values": [
      {"measurement": "percent of TUNEL positive cells", "setting": "[1]", "value": 22.9, "unit": "%"},
      {"measurement": "percent of cells with active caspase-8", "setting": "[2]", "value": 30.9, "unit": "%"},
      {"measurement": "percent of cells with active caspase-9", "setting": "[3]", "value": 29.6, "unit": "%"},
      {"measurement": "IC50", "setting": "[4]; MDA-MB-231, 24 h incubation", "value": "33 ± 3", "unit": "µM"},
      {"measurement": "IC50", "setting": "[4]; MDA-MB-231, 48 h incubation", "value": "29 ± 2", "unit": "µM"},
      {"measurement": "percent of cells with active caspase-9", "setting": "[5]", "value": 29.7, "unit": "%"},
      {"measurement": "IC50", "setting": "fibroblast cells; 24 h incubation", "value": "> 50", "unit": "µM"},
      {"measurement": "IC50", "setting": "fibroblast cells; 48 h incubation", "value": "46 ± 2", "unit": "µM"},
      {"measurement": "IC50", "setting": "[6]; MCF-7, 24 h incubation", "value": "32 ± 2", "unit": "µM"},
      {"measurement": "IC50", "setting": "[6]; MCF-7, 48 h incubation", "value": "29 ± 2", "unit": "µM"},
      {"measurement": "percent of TUNEL positive cells", "setting": "[7]", "value": 29.4, "unit": "%"},
      {"measurement": "percent of cells with active caspase-3", "setting": "[8]", "value": 14.8, "unit": "%"},
      {"measurement": "percent of cells with active caspase-8", "setting": "[9]", "value": 29.5, "unit": "%"}
    ]}
  ]
}
